Converted amounts (≈) assume the structure as drawn. “And” between values parts separate entries of the source, which are not always exact repeats. Equal values may be shown once. Read-outs that look alike come from different tables or passages of the source.
Assays:
[1] = target: Human neutrophil elastase (Homo sapiens (Human), UniProt P08246); experiment: Human Neutrophil Elastase Assay; type: biochemical; conditions: substrate MeOSuc-Ala-Ala-Pro-Val-AMC 250 μM, pH 7.5
[2] = Aqueous solubility; type: physicochemical; conditions: McIlvaine buffer pH 6.8, 2.5% DMSO, 24 h shaking; for solubility at 24 h: McIlvaine buffer pH 6.8 with 2.5% DMSO, pH 6.8, aqueous buffer, kinetic from dmso stock
Description: Assay for Determination of Aqueous Solubility […] After 24 h of shaking, the solutions or suspensions are filtered and analyzed by LC-UV. The amount dissolved in buffer is compared to the amount dissolved in the acetonitrile/water (1/1) solution.

[3] = test system: Caco-2 cells; experiment: Drug transport across human Caco-2 cells; type: in vitro ADME; conditions: for PEAB / PEBA: Caco-2 monolayers, pH 7.2, 37° C.; for PEAB: apical-to-basal; for PEBA: basal-to-apical; for Efflux ratio: PEBA/PEAB, Caco-2
Description: (§1) Assay for Determination of Drug Transport Across Human Caco-2 Cells The assay provides information on the potential of a compound to pass the cell membrane, on the extent of oral absorption as well as on whether the compound is actively transported by uptake and/or efflux transporters. […] The compounds are assigned to permeability/absorption classes by comparison of the AB permeabilities with the AB permeabilities of reference compounds with known in vitro permeability and oral absorption in the human. Identical or similar permeabilities in both transport directions indicate passive permeation, vectorial permeability points to additional active transport mechanisms. […] Active transport is concentration-dependently saturable. Caco-2 cells (1-2*10^5 cells/cm^2 area) are seeded on filter inserts (Costar transwell polycarbonate or PET filters, 0.4 nm pore size) and cultured (DMEM) for 10 to 25 days. […] The transport solution (TL) is applied ici to the apical or basolateral donor side for measuring A-B or B-A permeability (3 filter replicates), respectively. The receiver side contains HTP-4 buffer supplemented with 2% BSA. […] Sampled receiver volumes are replaced with fresh receiver solution.

[4] = target: neutrophil elastase in human plasma (Homo sapiens (Human), UniProt P08246); experiment: Neutrophil elastase inhibitory activity in human plasma (zymosan-stimulated blood); type: biochemical
Chain of neutrophil elastase in human plasma (P08246 30-247): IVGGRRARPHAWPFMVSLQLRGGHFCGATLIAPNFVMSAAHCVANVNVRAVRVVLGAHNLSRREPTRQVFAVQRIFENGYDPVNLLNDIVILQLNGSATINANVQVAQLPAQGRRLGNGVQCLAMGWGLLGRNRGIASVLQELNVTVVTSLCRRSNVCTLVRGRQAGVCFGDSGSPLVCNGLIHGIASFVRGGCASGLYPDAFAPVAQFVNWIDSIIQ
Description: Assay for the Determination of Neutrophil Elastase Inhibitory Activity in Human Plasma
Citrated blood from human healthy donors is mixed with zymosan suspension and incubated at room temperature. This leads to the stimulation of neutrophils and the release of neutrophil elastase into the plasma. The stimulated blood is centrifuged to generate the neutrophil elastase enriched plasma.
Various concentrations of the neutrophil elastase inhibitor are incubated with plasma. […] A dose response curve is generated to calculate the EC50 of the inhibitor.

[5] = Metabolic stability with human liver microsomes; type: in vitro ADME; conditions: for half-life at 1 μM: pH 7.6
[6] = Drug transport across human Caco-2 cells; type: in vitro ADME; conditions: human; for Papp B→A at 10 µM / Papp A→B at 10 µM: Caco-2, pH 7.2, Caco-2 monolayers, pH 7.2, 37° C.; for Papp B→A at 10 µM: basal-to-apical, read-out: PEBA; for efflux ratio at 10 μM: Caco-2, pH 7.2, PEBA/PEAB, Caco-2; for Papp A→B at 10 µM: apical-to-basal, read-out: PEAB
Description: as §1

[7] = test system: human hepatocytes; experiment: Metabolic stability with human hepatocytes; type: in vitro ADME; conditions: human hepatocyte suspension, 1 μM test compound, scaled with well stirred model
Description: Assay for the Determination of Metabolic Stability with Human Hepatocytes The metabolic degradation of the test compound is assayed in a human hepatocyte suspension. Human hepatocytes (typically cryopreserved) are incubated in an appropriate buffer system (e.g. […] Samples are transferred into acetonitrile and pelleted by centrifugation (5 min) The supernatant is transferred to a new 96-deepwell plate, evaporated under nitrogen and resuspended. The decline of parent compound is analyzed by LC-MS/MS.

[8] = target: cytochrome P450 2C19 (Homo sapiens (Human), UniProt P33261); experiment: Cytochrome P450 2C19 inhibition; type: in vitro ADME; conditions: human liver microsomes, (S)-Mephenytoin hydroxylation; read-out: CYP2C19 IC50
Chain of cytochrome P450 2C19 (P33261 whole entry): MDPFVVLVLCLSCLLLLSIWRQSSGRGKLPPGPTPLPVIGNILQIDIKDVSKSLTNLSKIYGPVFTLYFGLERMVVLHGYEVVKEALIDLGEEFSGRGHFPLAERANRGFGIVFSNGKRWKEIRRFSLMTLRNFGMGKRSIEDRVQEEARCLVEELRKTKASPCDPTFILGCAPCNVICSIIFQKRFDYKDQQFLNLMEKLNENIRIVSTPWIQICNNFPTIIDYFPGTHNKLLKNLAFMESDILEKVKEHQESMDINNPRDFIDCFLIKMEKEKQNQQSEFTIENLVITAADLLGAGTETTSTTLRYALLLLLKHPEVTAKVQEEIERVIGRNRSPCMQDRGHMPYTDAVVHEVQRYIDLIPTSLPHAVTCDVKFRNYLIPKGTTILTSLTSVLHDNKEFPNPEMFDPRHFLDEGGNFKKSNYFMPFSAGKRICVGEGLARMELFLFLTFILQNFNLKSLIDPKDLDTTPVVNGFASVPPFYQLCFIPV

[9] = target: cytochrome P450 2C8 (Homo sapiens (Human), UniProt P10632); experiment: Cytochrome P450 2C8 inhibition; type: in vitro ADME; conditions: human liver microsomes, Amodiaquine deethylation; read-out: CYP2C8 IC50
Chain of cytochrome P450 2C8 (P10632 whole entry): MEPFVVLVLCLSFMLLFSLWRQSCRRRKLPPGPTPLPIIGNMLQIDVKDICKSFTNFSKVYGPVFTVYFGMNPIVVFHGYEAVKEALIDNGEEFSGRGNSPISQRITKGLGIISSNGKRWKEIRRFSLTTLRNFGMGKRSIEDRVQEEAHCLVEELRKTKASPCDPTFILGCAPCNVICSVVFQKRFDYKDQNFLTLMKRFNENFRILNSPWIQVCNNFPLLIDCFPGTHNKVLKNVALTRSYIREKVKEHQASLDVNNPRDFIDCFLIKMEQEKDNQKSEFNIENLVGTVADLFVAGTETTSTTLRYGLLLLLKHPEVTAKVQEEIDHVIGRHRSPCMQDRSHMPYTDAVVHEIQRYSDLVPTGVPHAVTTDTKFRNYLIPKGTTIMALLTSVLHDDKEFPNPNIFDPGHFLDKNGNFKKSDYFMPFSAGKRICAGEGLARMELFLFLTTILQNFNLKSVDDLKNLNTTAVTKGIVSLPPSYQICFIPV

[10] = target: cytochrome P450 2C9 (Homo sapiens (Human), UniProt P11712); experiment: Cytochrome P450 2C9 inhibition; type: in vitro ADME; conditions: human liver microsomes, Diclofenac hydroxylation; read-out: CYP2C9 IC50
Chain of cytochrome P450 2C9 (P11712 whole entry): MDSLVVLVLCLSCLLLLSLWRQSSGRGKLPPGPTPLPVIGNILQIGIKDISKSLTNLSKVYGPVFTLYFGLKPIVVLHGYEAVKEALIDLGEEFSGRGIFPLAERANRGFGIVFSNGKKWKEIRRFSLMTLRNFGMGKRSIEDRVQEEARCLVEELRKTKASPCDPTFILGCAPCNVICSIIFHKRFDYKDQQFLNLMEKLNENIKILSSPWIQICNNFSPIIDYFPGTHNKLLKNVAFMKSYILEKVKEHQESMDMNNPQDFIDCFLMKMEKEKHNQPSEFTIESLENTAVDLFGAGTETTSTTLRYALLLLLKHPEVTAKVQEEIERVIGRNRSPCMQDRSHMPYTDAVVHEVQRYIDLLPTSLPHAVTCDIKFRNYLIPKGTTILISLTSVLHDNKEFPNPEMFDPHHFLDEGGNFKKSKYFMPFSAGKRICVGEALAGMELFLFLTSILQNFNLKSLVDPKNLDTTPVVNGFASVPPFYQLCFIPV

[11] = IC50, human neutrophil elastase
[12] = EC50, neutrophil elastase enriched human plasma from zymosan-stimulated blood
[13] = pooled human liver microsomes, 1 mg/ml protein, 1 μM test compound, 37° C., NADPH
[14] = human neutrophil elastase, read-out: IC50
[15] = neutrophil elastase enriched human plasma from zymosan-stimulated blood, read-out: EC50

Chain of Human neutrophil elastase (P08246 30-247): as the sequence (P08246 30-247) above

Row | Compound | Aqueous solubility [2] | PEAB [3] | PEBA [3] | Efflux ratio [3] | t1/2 INVITRO [5, 13] | solubility at 24 h [2] | Papp B→A at 10 µM [6] | efflux ratio at 10 μM [6] | CL (predicted human hepatic in vivo blood clearance) [7] | IC50 [1, 14] | Papp A→B at 10 µM [6] | EC50 [4, 15] | half-life at 1 μM ([5]; human, microsomes) | other results
1 | CN1C(=O)N(c2cccc(C(F)(F)F)c2)C2=C(C(=O)CC2)C1c1ccc(C#N)cc1[S+](C)[O-] (single isomer, unassigned) [Example 30A, 4-(3-Methyl-2,5-dioxo-1-(3-(trifluoromethyl)phenyl)-2,3,4,5,6,7-hexahydro-1H-cyclopenta[d]pyrimidin-4-yl)-3-(methylsulfinyl)benzonitrile] | 51 µg/mL | 3.52 ×10⁻⁶ cm/s | 39 ×10⁻⁶ cm/s | 11.1 | >2.17 h |  |  |  |  |  |  |  |  | IC50 [1, 11]: 1.3 nM; EC50 [4, 12]: 1 nM
2 | CN1C(=O)N(c2cccc(C(F)(F)F)c2)C2=C(C(=O)CC2)C1c1ccc(C#N)cc1[S+](C)[O-] (single isomer, unassigned) [Example 30B, 4-(3-Methyl-2,5-dioxo-1-(3-(trifluoromethyl)phenyl)-2,3,4,5,6,7-hexahydro-1H-cyclopenta[d]pyrimidin-4-yl)-3-(methylsulfinyl)benzonitrile] |  | 12 ×10⁻⁶ cm/s |  |  |  | 65 µg/mL (≈ 137 µM) | 71.4 ×10⁻⁶ cm/s | 5.9 |  |  |  |  |  | IC50 [1, 11]: 2 nM; EC50 [4, 12]: 2 nM; half-life at 1 μM ([5]; pooled human liver microsomes, 1 mg/ml protein, 1 μM test compound, 37° C., NADPH, read-out: t1/2 INVITRO): > 2.17 h
3 | N#Cc1ccc(C2C3=C(CCC3=O)N(c3cccc(C(F)(F)F)c3)C(=O)N2C(=O)NCCCO)cc1 (stereo not drawn) [Example 7.3] | 72 µg/mL | 9.49 ×10⁻⁶ cm/s | 67.1 ×10⁻⁶ cm/s | 7.1 | >2.17 h |  |  |  | 7 mL/min/kg |  |  |  |  | 
4 | CS(=O)(=O)N1C(=O)N(c2cccc(C(F)(F)F)c2)C2=C(C(=O)CC2)[C@H]1c1ccc(C#N)cc1 [Example 9A, (R)-4-(3-(Methylsulfonyl)-2,5-dioxo-1-(3-(trifluoromethyl)phenyl)-2,3,4,5,6,7-hexahydro-1H-cyclopenta[d]pyrimidin-4-yl)benzonitrile] |  |  |  |  |  |  | 73 ×10⁻⁶ cm/s | 1.7 | 0 mL/min/kg | 3 nM | 43.9 ×10⁻⁶ cm/s | 2 nM | > 2.17 h | IC50 [8]: > 50000 nM; IC50 [9]: > 50000 nM; IC50 [10]: > 50000 nM
5 | CS(=O)(=O)c1cc(C#N)ccc1[C@@H]1C2=C(CCC2=O)N(c2cccc(C(F)(F)F)c2)C(=O)N1CC#N [Example 23, (S)-4-(3-(Cyanomethyl)-2,5-dioxo-1-(3-(trifluoromethyl)phenyl)-2,3,4,5,6,7-hexahydro-1H-cyclopenta[d]pyrimidin-4-yl)-3-(methylsulfonyl)benzonitrile] |  |  |  |  |  | 15 µg/mL (≈ 29.2 µM) | 93.5 ×10⁻⁶ cm/s | 9.1 | 0 mL/min/kg | 3.4 nM | 10.3 ×10⁻⁶ cm/s | < 1 nM | > 2.17 h | 
6 | CN1C(=O)N(c2cccc(C(F)(F)F)c2)C2=C(C(=O)CC2)[C@H]1c1ccc(C#N)cc1S(C)(=O)=O [Example 25, (S)-4-(3-Methyl-2,5-dioxo-1-(3-(trifluoromethyl)phenyl)-2,3,4,5,6,7-hexahydro-1H-cyclopenta[d]pyrimidin-4-yl)-3-(methylsulfonyl)benzonitrile] |  |  |  |  |  | 62 µg/mL (≈ 127 µM) | 74 ×10⁻⁶ cm/s | 1.3 | 2 mL/min/kg | < 1 nM | 56.7 ×10⁻⁶ cm/s | 1 nM | > 2.17 h | 
7 | C[C@H](O)CNC(=O)N1C(=O)N(c2cccc(C(F)(F)F)c2)C2=C(C(=O)CC2)C1c1ccc(C#N)cc1 (stereo partly drawn) [Example 41.1] | 97 µg/mL and 73 µg/mL |  | 72.9 ×10⁻⁶ cm/s and 90.3 ×10⁻⁶ cm/s | 8.9 and 4.8 | >2.17 h |  |  |  | 2 mL/min/kg |  |  |  |  | 
8 | C[C@H](CO)NC(=O)N1C(=O)N(c2cccc(C(F)(F)F)c2)C2=C(C(=O)CC2)C1c1ccc(C#N)cc1 (stereo partly drawn) [Example 41.4] | 92 µg/mL | 9.41 ×10⁻⁶ cm/s | 81.5 ×10⁻⁶ cm/s | 8.7 | >2.17 h |  |  |  | 5 mL/min/kg |  |  |  |  | 
9 | N#Cc1ccc(C2C3=C(CCC3=O)N(c3cccc(C(F)(F)F)c3)C(=O)N2C(=O)NC2(CO)CC2)cc1 (stereo not drawn) [Example 41.5] | 82 µg/mL | 8.85 ×10⁻⁶ cm/s | 77 ×10⁻⁶ cm/s | 8.7 |  |  |  |  |  |  |  |  |  | 
10 | N#Cc1ccc(C2C3=C(CCC3=O)N(c3cccc(C(F)(F)F)c3)C(=O)N2C(=O)NC2CCOCC2)cc1 (stereo not drawn) [Example 41.16] |  | 58.9 ×10⁻⁶ cm/s | 57.7 ×10⁻⁶ cm/s | 1.0 | >2.17 h |  |  |  |  |  |  |  |  | 
11 | CC(C)(O)CCNC(=O)N1C(=O)N(c2cccc(C(F)(F)F)c2)C2=C(C(=O)CC2)C1c1ccc(C#N)cc1 (stereo not drawn) [Example 41.17] | 54 µg/mL | 23.4 ×10⁻⁶ cm/s | 80.7 ×10⁻⁶ cm/s | 3.5 | >2.17 h |  |  |  | 3 mL/min/kg |  |  |  |  | 
12 | CNC(=O)N1C(=O)N(c2cccc(C(F)(F)F)c2)C2=C(C(=O)CC2)C1c1ccc(C#N)cn1 (stereo not drawn) [Example 50.1] |  |  |  |  |  | 41 µg/mL (≈ 90 µM) | 66.1 ×10⁻⁶ cm/s | 1 | 1 mL/min/kg | 4 nM | 66.7 ×10⁻⁶ cm/s | 16 nM |  | 
13 | CCNC(=O)N1C(=O)N(c2cccc(C(F)F)c2)C2=C(C(=O)CC2)C1c1ccc(C#N)cc1 (stereo not drawn) [Example 52.2] |  |  |  |  |  | 16 µg/mL (≈ 35.5 µM) | 80.3 ×10⁻⁶ cm/s | 1.1 | 3 mL/min/kg | < 1 nM | 70.8 ×10⁻⁶ cm/s | 1 nM | > 2.17 h | 
14 | N#Cc1ccc([C@@H]2C3=C(CCC3=O)N(c3cccc(C(F)F)c3)C(=O)N2C(=O)NCCCO)cc1 [Example 52A, (R)-4-(4-Cyanophenyl)-1-(3-(difluoromethyl)phenyl)-N-(3-hydroxypropyl)-2,5-dioxo-4,5,6,7-tetrahydro-1H-cyclopenta[d]pyrimidine-3(2H)-carboxamide] |  |  |  |  |  | 88 µg/mL (≈ 183 µM) |  |  | 8 mL/min/kg | < 1 nM |  | < 1 nM | > 2.17 h | 
15 | CC(C)NC(=O)N1C(=O)N(c2cccc(C(F)F)c2)C2=C(C(=O)CC2)C1c1ccc(C#N)cc1S(C)(=O)=O (stereo not drawn) [Example 53.4] |  |  |  |  |  | 14 µg/mL (≈ 25.8 µM) | 94.4 ×10⁻⁶ cm/s |  | 0 mL/min/kg |  | 9.85 ×10⁻⁶ cm/s |  | > 2.17 h | 

— patent US9290459B1, “Substituted bicyclic dihydropyrimidinones and their use as inhibitors of neutrophil elastase activity” (Boehringer Ingelheim International GmbH, priority 2013, dated 2016)
